From paper PMC4919066 (PLoS Pathogens, 2016)
Counter-ions that a name gives are not always drawn.

Assays:
p21 = assay: qRT-PCR for p21; assay type: cell-based, human; settings: emetine 75 nM, infected high-density cells
Description: Total RNA was isolated from cultured cells using RNeasy Mini kit (Qiagen). RevertAid first strand cDNA synthesis kit (Fermentas life sciences, Cromwell Park, MD) was used to synthesize first strand cDNA from total RNA using oligo-dT primers. Negative RT reactions were included to ensure the specificity of qRT-PCR reactions. Synthesis of first strand cDNA from mRNA template was carried out at 42°C for 1 h. Quantitative RT-PCR was performed in triplicates using specific primers for p21 (F: 5’ […] 3’; R: 5’ […] 3’) and SYBR green (Fermentas life science) with two-step cycling protocol (95°C for 15 s, 60°C for 1 min). GAPDH (F: 5’ […] 3’; R: 5’ […] 3’) was used as the internal control.

MDM2-p53 = assay: Co-immunoprecipitation MDM2-p53; assay type: cell-based, human; settings: emetine 75 nM, infected high-density cells, 24 hpi, MG132
Description: (§1) Non-infected, infected or emetine-treated HFFs were treated with MG132 (10 μM) for 12h. Cells were harvested after 24 hpi and lysed with IP buffer containing 150 mM NaCl, 50mM Tris pH 7.5, 2 mM EDTA, 0.5% TritonX-100 and 0.5% NP-40-40. 1 mg of lysate was precleared with bead slurry for 30 min. The precleared lysates were incubated with anti-MDM2 (2 μg) antibody overnight. The antibody complexes were isolated using protein A/G beads (Santa Cruz), washed three times with 50% IP buffer. The immunoprecipitate-protein A/G beads were boiled in SDS sample buffer, and the supernatant was analyzed on SDS-PAGE gels after immunoblotting as described previously. 1% of the cell lysate used for IP was loaded on gels as ‘Input’. Confirmatory reverse IPs were performed as described in each experiment. Isotype control antibodies included: rabbit IgG polyclonal, mouse IgG2a kappa and mouse IgG2b kappa monoclonal (Abcam). Mouse monoclonal RPS19 antibody (Abcam) served as an additional negative control for the IPs. Densitometry analysis was performed to determine relative ratio of immunoprecipitated protein to its input level.

MCMV = tested on: MCMV
Description: For infection experiments BALB/c mice, 4–6 weeks old, were purchased from Harlan Laboratories (Indianapolis, Indiana). The Animal Care and Use Committee of Johns Hopkins University approved the experimental procedures. […] Mice were infected intraperitoneally with 10^6 PFU/mice (0.1 mL in 0.8% saline). Control mice received 0.1 ml of saline intraperitoneally. […] GCV was administered intraperitoneally twice daily. […] Control and infected mice received equivalent volumes of saline. Mice were sacrificed at day 14 after infection. Blood samples were collected by cardiac puncture. Salivary glands and liver were harvested and stored at -80°C. Organs were homogenized in DMEM with 4% FBS at a final concentration of 100 mg/mL. Two million MEFs were seeded into 24-well plates. From each sample, 5% of the salivary gland homogenate or 10% of the liver homogenate was used for infection of MEFs in triplicates. Plaques were counted after three days. Whole blood viral load was measured at day 14 by real-time PCR of the glycoprotein B (gB) gene. DNA was extracted using the DNA blood mini kit (Qiagen, Georgetown, MD).

[1] = tested on: HCMV proteins IE1/2, UL44 and pp65; assay: Western blot of viral proteins; assay type: cell-based, Human Cytomegalovirus; settings: emetine 75 nM, 72 hpi
Excerpt: Cell lysates were quantified for protein content using bicinchoninic acid (BCA) protein assay kit (Pierce Chemical, Rockford, IL). Equivalent amount of proteins were used for Western blot analysis as described previously (11). Protein bands were visualized by chemiluminescence using Western Blotting Luminol Reagent (Santa Cruz Biotechnology, Santa Cruz, CA). The following antibodies were used for detection of HCMV proteins: mouse anti-IE1 and IE2, (MAb810); mouse anti-UL44 (Santa Cruz biotechnology); mouse monoclonal anti-pp65 (Vector laboratories, Burlingame, CA); mouse monoclonal anti-β-actin antibody (Millipore, Billerica, MA); rabbit polyclonal anti-RPS14 and mouse monoclonal anti-MDM2 (AbCam, Cambridge, UK), mouse monoclonal anti-p53 (Santa Cruz); horseradish peroxidase (HRP)-conjugated goat anti-rabbit IgG (Cell Signaling); and HRP-conjugated sheep anti-mouse IgG, (GE Healthcare, Waukesha, WI). For detection of co-immunoprecipitated proteins, protein A-HRP conjugate (Cell Signaling Technologies, Beverly, MA) was used as secondary antibody to eliminate the interfering IgG bands.

MDM2-IE2 = assay: Co-immunoprecipitation MDM2-IE2 in transfected HEK293 cells; assay type: cell-based; settings: IE1/2 transfection, emetine 75 nM or GCV 5 μM for 4 h
Description: HEK-293 cells seeded into 10 cm petri dishes were transfected with HCMV plasmid encoding IE1 and IE2 (pRL45), using Lipofectamine 2000 in serum free medium. After 6 h, 10% FBS containing media was added along with 10 μM of MG132. […] Cells were then harvested to prepare lysates for IP.
as §1

[2] = Cell viability, MTT-based colorimetric assay; settings: human, non-infected human foreskin fibroblasts (HFFs), cell viability after 72 h
Description: Cell viability was determined by an MTT-based colorimetric assay (Sigma-Aldrich), and performed at the same time points as the antiviral assay.

[3] = all treatment regimens (0.1 or 1 mg/kg oral, from 24 or 72 hpi), day 14

CC[C@H]1CN2CCc3cc(OC)c(OC)cc3[C@@H]2C[C@@H]1C[C@H]1NCCc2cc(OC)c(OC)cc21 [emetine, emetine dihydrochloride hydrate]
increase in p21 mRNA (p21; 24 hpi): 5.4 fold | increase in p21 mRNA (p21; 72 hpi): 6.7 fold | interaction between MDM2 and p53 (MDM2-p53): disrupted | decrease in MCMV DNA copy number in blood compared to infected control (MCMV; 0.1 or 1 mg/kg orally every three days from 24 h or 72 h after infection, day 14): 2 to 4 log10 | reduction of viral PFUs in liver (MCMV; [3]): 3–6 fold | reduction of viral PFUs in salivary gland (MCMV; [3]): 4–6 fold | tolerability in mouse CMV model (MCMV; mouse): well-tolerated | expression of HCMV proteins IE1/2, UL44 and pp65 [1]: significantly reduced | interaction between MDM2 and IE2 (MDM2-IE2): significantly decreased | CC50 at 72 h [2]: 8 ± 0.56 µM
